# Source: ChEMBL document CHEMBL4706735, “Novel Pyrazolo[3,4-b]pyrazines as SHP2 Inhibitors for Treating Cancer” (ACS Med Chem Lett, 2021)
# Experiment: Inhibition of ERK phosphorylation in human HCC827 cells incubated for 30 mins in serum free medium measured by sandwich ELISA
# Assay type: cell-based
# Conditions: HCC827, 0.5 h
row,SMILES,IC50 [nM]
1,COc1cnc2ccc(-c3n[nH]c4nc(N5CCC6(CC5)CO[C@@H](C)[C@H]6N)c(CO)nc34)c(Cl)c2n1,8.4
2,Cn1nc2ccc(-c3n[nH]c4nc(N5CCC6(CC5)CC(F)(F)C[C@H]6N)c(CO)nc34)c(Cl)c2c1Cl,6.2
3,Cn1cc2c(Cl)c(-c3n[nH]c4nc(N5CCC6(CC5)CC(F)(F)C[C@H]6N)c(CO)nc34)ccc2n1,6.3

# These reach a lower IC50. Values come first.
row,IC50 [nM],SMILES
1,5.6,C[C@@H]1OCC2(CCN(c3nc4[nH]nc(-c5cccc(Cl)c5F)c4nc3CO)CC2)[C@@H]1N
2,4.1,Cn1nc2ccc(-c3n[nH]c4nc(N5CCC6(CC5)C[C@H](F)C[C@H]6N)c(CO)nc34)c(Cl)c2c1Cl
3,3.6,C[C@@H]1OCC2(CCN(c3nc4[nH]nc(-c5ccc6nn(C)c(Cl)c6c5Cl)c4nc3CO)CC2)[C@@H]1N
